The target of assay [1] is T1, EGFR (Homo sapiens, UniProt P00533).
T1 construct: purchased Enzo Life Sciences Inc, NY, USA; Signal Chem, Richmond, Canada
Description: In vitro kinase assay, EGFR. Particulars: ATP 50 μM, average of three independent experiments in duplicate, read-out: IC50 EGFR kinase inhibition. In kind it is biochemical. As for the experimental part: The EGFR and c-Src kinase assays were performed in 96-well plates (NuncMaxisorp) coated with PGT (poly L-glutamic acid L-tyrosine, 4:1, Sigma Aldrich, MO, USA) and incubated at 37°C for 48h prior to using. PGT served as the substrate to be phosphorylated by EGFR (Enzo Life Sciences Inc, NY, USA, Signal Chem, Richmond, Canada) and c-Src (Enzo Life Sciences Inc, NY, USA, Signal Chem, Richmond, Canada) in the presence of ATP (50 μM). […] To each well, 15 ng of EGFR (20 μg/ml) or 6 ng of c-Src (0.1 μg/μl) were added. The phosphorylated substrate was detected using an HRP-conjugated anti-phosphotyrosine antibody (Santa Cruz Biotechnology, CA). The signal was developed by the addition of 3, 3’, 5, 5’-tetramethylbenzidine peroxidase substrate (Kierkegaard and Perry Laboratories, Gaithersburg, MD) and the colorimetric reaction was monitored at 450 nm using a microplate reader ELx808 (BioTek Instruments). The IC50 values were calculated using GraphPad Prism 6.0 (GraphPadSoftware, Inc., San Diego, CA). Each experiment was carried out at least three times, in duplicate.

Assay [2] concerns 4T1 cells. Put plainly: Wound-healing assay, 4T1. In kind it is cell-based, mouse. Particulars: 4T1, 0.1 μM, 24h drug exposure. On the procedure:
MDA-MB-231 and 4T1 cells were plated in 6-well plates (500,000 cells/well) and allowed to attach overnight (37°C, 5% CO2). The following day, media was removed and a cross scratch was made in the middle of the cell monolayer. […] The scratch was visualized at two different time points (0 and 24h) using the Leica DM IL inverted microscope (10X) and images were obtained using the Leica DFC300FX camera.

T1 sequence (P00533 25-1210): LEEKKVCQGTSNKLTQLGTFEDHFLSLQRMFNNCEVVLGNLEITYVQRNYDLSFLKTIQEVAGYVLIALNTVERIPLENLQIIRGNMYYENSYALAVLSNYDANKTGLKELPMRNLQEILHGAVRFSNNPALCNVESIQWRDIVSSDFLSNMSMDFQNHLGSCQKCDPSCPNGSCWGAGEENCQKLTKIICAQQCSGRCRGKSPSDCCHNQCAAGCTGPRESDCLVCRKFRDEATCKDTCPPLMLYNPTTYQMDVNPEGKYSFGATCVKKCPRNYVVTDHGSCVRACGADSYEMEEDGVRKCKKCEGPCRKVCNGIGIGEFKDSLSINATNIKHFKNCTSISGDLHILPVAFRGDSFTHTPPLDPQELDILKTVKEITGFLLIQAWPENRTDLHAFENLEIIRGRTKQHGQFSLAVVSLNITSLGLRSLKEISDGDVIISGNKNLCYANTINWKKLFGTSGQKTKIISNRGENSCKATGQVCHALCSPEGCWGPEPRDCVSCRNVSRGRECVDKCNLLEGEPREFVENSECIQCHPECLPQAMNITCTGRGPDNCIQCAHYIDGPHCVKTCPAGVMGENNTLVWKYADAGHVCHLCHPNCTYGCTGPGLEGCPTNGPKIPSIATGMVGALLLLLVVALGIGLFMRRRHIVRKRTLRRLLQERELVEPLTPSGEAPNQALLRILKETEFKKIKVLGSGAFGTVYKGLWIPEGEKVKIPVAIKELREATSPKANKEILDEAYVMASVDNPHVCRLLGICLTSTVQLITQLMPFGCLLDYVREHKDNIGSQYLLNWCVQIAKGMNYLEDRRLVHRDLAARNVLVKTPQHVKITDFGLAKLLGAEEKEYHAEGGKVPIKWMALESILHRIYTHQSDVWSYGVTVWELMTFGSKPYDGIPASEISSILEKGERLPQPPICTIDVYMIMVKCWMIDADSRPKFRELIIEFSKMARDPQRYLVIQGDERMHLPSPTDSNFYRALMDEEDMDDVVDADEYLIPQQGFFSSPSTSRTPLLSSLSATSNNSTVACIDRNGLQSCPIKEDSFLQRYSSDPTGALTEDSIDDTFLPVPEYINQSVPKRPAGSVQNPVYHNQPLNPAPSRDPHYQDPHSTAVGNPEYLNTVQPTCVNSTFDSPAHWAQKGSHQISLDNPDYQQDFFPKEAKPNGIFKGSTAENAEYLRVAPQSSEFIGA

Turning to `Cc1nc(Nc2ncc(C(=O)Nc3c(C)cccc3Cl)s2)cc(N2CCN(CCOC(=O)CCC(=O)OCCN(C)Cc3ccc(C(=O)Nc4ccc5ncnc(Nc6cccc(Cl)c6)c5c4)cc3)CC2)n1` [AL776], the IC50 in assay [1] is 0.12 µM. For the same compound, the Effect on wound-closure entry in assay [2] is listed as “blocked wound-closure”.

For the origin of these results see article PMC4414309, “Target Modulation by a Kinase Inhibitor Engineered to Induce a Tandem Blockade of the Epidermal Growth Factor Receptor (EGFR) and c-Src: The Concept of Type III Combi-Targeting” (PLoS ONE, 2015).
